Laboratory results reported in ChEMBL document CHEMBL3046761, “Synthesis of 27-oxo, 27-hydroxymilbemycins A3 and A4 and novel 27-alkoxymilbemycins A3 and A4 from milbemycins A3 and A4 and their acaricidal activities” (2002).

Tests used:
Tetranychus urticae [1] = assay: Acaricidal activity against Tetranychus urticae (two-spotted spider mite) infected cowpea plant assessed as mortality at 1 ppm sprayed 24 hr post-infection measured after 3 days; assay type: functional
Tetranychus urticae [2] = assay: Acaricidal activity against Tetranychus urticae (two-spotted spider mite) infected cowpea plant assessed as mortality at 10 ppm sprayed 24 hr post-infection measured after 3 days; assay type: functional

In the case of `CC1=C[C@H]2C(=O)O[C@H]3C[C@@H](C/C=C(\C)C[C@@H](C)/C=C/C=C(\C=O)[C@]2(O)[C@H](O)[C@@H]1O)O[C@@]1(CC[C@H](C)[C@@H](C)O1)C3`, the mortality at 1 ppm (Tetranychus urticae [1]) is reported as 7% and the mortality at 10 ppm (Tetranychus urticae [2]) is reported as 17%.
For `CC[C@H]1O[C@]2(CC[C@@H]1C)C[C@@H]1C[C@@H](C/C=C(\C)C[C@@H](C)/C=C/C=C(\C=O)[C@]3(O)[C@H](O)[C@H](O)C(C)=C[C@H]3C(=O)O1)O2`, the mortality at 1 ppm (Tetranychus urticae [1]) was 11% and the mortality at 10 ppm (Tetranychus urticae [2]) was 53%.
Compound `CCO[C@H]1O[C@@H]2[C@H](O)C(C)=C[C@H]3C(=O)O[C@H]4C[C@@H](C/C=C(\C)C[C@@H](C)/C=C/C=C\1[C@]23O)O[C@@]1(CC[C@H](C)[C@@H](CC)O1)C4` [27-ALPHAETHOXY MILBEMYCIN A4] has a mortality at 1 ppm (Tetranychus urticae [1]) of 25% and a mortality at 10 ppm (Tetranychus urticae [2]) of 81%.
For `CC[C@H]1O[C@]2(CC[C@@H]1C)C[C@@H]1C[C@@H](C/C=C(\C)C[C@@H](C)/C=C/C=C3\[C@@H](OC(C)C)O[C@@H]4[C@H](O)C(C)=C[C@@H](C(=O)O1)[C@]34O)O2` [27-ALPHAISOPROPOXY MILBEMYCIN A4], the mortality at 1 ppm (Tetranychus urticae [1]) was 14% and the mortality at 10 ppm (Tetranychus urticae [2]) was 76%.
`CO[C@H]1O[C@@H]2[C@H](O)C(C)=C[C@H]3C(=O)O[C@H]4C[C@@H](C/C=C(\C)C[C@@H](C)/C=C/C=C\1[C@]23O)O[C@@]1(CC[C@H](C)[C@@H](C)O1)C4` [27-ALPHAMETHOXY MILBEMYCIN A3] was tested, and the mortality at 1 ppm (Tetranychus urticae [1]) was 8% and the mortality at 10 ppm (Tetranychus urticae [2]) was 72%.
In the case of `CC[C@H]1O[C@]2(CC[C@@H]1C)C[C@@H]1C[C@@H](C/C=C(\C)C[C@@H](C)/C=C/C=C3\[C@@H](OC)O[C@@H]4[C@H](O)C(C)=C[C@@H](C(=O)O1)[C@]34O)O2` [27-ALPHAMETHOXY MILBEMYCIN A4], the mortality at 1 ppm (Tetranychus urticae [1]) is reported as 17% and the mortality at 10 ppm (Tetranychus urticae [2]) is reported as 92%.
`CCO[C@@H]1O[C@@H]2[C@H](O)C(C)=C[C@H]3C(=O)O[C@H]4C[C@@H](C/C=C(\C)C[C@@H](C)/C=C/C=C\1[C@]23O)O[C@@]1(CC[C@H](C)[C@@H](CC)O1)C4` [27-BETAETHOXY MILBEMYCIN A4] gave a mortality at 1 ppm (Tetranychus urticae [1]) of 0% and a mortality at 10 ppm (Tetranychus urticae [2]) of 77%.
`CC[C@H]1O[C@]2(CC[C@@H]1C)C[C@@H]1C[C@@H](C/C=C(\C)C[C@@H](C)/C=C/C=C3\[C@H](OC(C)C)O[C@@H]4[C@H](O)C(C)=C[C@@H](C(=O)O1)[C@]34O)O2` [27-BETAISOPROPOXY MILBEMYCIN A4] was tested, and the mortality at 1 ppm (Tetranychus urticae [1]) was 22% and the mortality at 10 ppm (Tetranychus urticae [2]) was 72%.
`CO[C@@H]1O[C@@H]2[C@H](O)C(C)=C[C@H]3C(=O)O[C@H]4C[C@@H](C/C=C(\C)C[C@@H](C)/C=C/C=C\1[C@]23O)O[C@@]1(CC[C@H](C)[C@@H](C)O1)C4` [27-BETAMETHOXY MILBEMYCIN A3] showed a mortality at 1 ppm (Tetranychus urticae [1]) of 3% and a mortality at 10 ppm (Tetranychus urticae [2]) of 65%.
For `CC[C@H]1O[C@]2(CC[C@@H]1C)C[C@@H]1C[C@@H](C/C=C(\C)C[C@@H](C)/C=C/C=C3\[C@H](OC)O[C@@H]4[C@H](O)C(C)=C[C@@H](C(=O)O1)[C@]34O)O2` [27-BETAMETHOXY MILBEMYCIN A4], the mortality at 1 ppm (Tetranychus urticae [1]) was 19% and the mortality at 10 ppm (Tetranychus urticae [2]) was 87%.
Work on `CC1=C[C@H]2C(=O)O[C@H]3C[C@@H](C/C=C(\C)C[C@@H](C)/C=C/C=C4\C(O)O[C@H]([C@@H]1O)[C@@]42O)O[C@@]1(CC[C@H](C)[C@@H](C)O1)C3` (some centres not stated) [27-HYDROXY MILBEMYCIN A3] yielded a mortality at 1 ppm (Tetranychus urticae [1]) of 7% and a mortality at 10 ppm (Tetranychus urticae [2]) of 17%.
With `CC[C@H]1O[C@]2(CC[C@@H]1C)C[C@@H]1C[C@@H](C/C=C(\C)C[C@@H](C)/C=C/C=C3\C(O)O[C@@H]4[C@H](O)C(C)=C[C@@H](C(=O)O1)[C@]34O)O2` (some centres not stated) [27-HYDROXY MILBEMYCIN A4] the mortality at 1 ppm (Tetranychus urticae [1]) was 11% and the mortality at 10 ppm (Tetranychus urticae [2]) was 53%.
With `CC1=C[C@H]2C(=O)O[C@H]3C[C@@H](C/C=C(\C)C[C@@H](C)/C=C/C=C4\C(=O)O[C@H]([C@@H]1O)[C@@]42O)O[C@@]1(CC[C@H](C)[C@@H](C)O1)C3` [27-OXOMILBEMYCIN A3] the mortality at 1 ppm (Tetranychus urticae [1]) was 3% and the mortality at 10 ppm (Tetranychus urticae [2]) was 3%.
`CC[C@H]1O[C@]2(CC[C@@H]1C)C[C@@H]1C[C@@H](C/C=C(\C)C[C@@H](C)/C=C/C=C3\C(=O)O[C@@H]4[C@H](O)C(C)=C[C@@H](C(=O)O1)[C@]34O)O2` [27-OXOMILBEMYCIN A4] gave a mortality at 1 ppm (Tetranychus urticae [1]) of 4% and a mortality at 10 ppm (Tetranychus urticae [2]) of 11%.
`CC1=C[C@H]2C(=O)O[C@H]3C[C@@H](C/C=C(\C)C[C@@H](C)/C=C/C=C4\CO[C@H]([C@@H]1O)[C@@]42O)O[C@@]1(CC[C@H](C)[C@@H](C)O1)C3` [MILBEMYCIN A3] gave a mortality at 1 ppm (Tetranychus urticae [1]) of 3% and a mortality at 10 ppm (Tetranychus urticae [2]) of 69%.
In the case of `CC[C@H]1O[C@]2(CC[C@@H]1C)C[C@@H]1C[C@@H](C/C=C(\C)C[C@@H](C)/C=C/C=C3\CO[C@@H]4[C@H](O)C(C)=C[C@@H](C(=O)O1)[C@]34O)O2` [MILBEMYCIN A4], the mortality at 1 ppm (Tetranychus urticae [1]) is reported as 32% and the mortality at 10 ppm (Tetranychus urticae [2]) is reported as 100%.
